Five molecules from DBAASP can be followed below.

Experiment in all cases: ≥ marks a high value that may be exact or a test limit, other limits are often not marked, values filed in µg/mL are converted to µM
Experiment [1] deals with Aspergillus awamori KCTC 6915.
The subject of experiment [2] is Aspergillus flavus KCTC 6905.
For experiment [3], the system named is Aspergillus fumigatus KCTC 6145.
The test system of experiment [4] is Aspergillus parasiticus KCTC 6598.
The subject of experiment [5] is Bacillus subtilis KCTC 1998.
The test system of experiment [6] is Candida albicans KCTC 7270.
The test system of experiment [7] is Escherichia coli ATCC 25922.
Experiment [8] deals with Listeria monocytogenes KCTC 3710.
In experiment [9] the test system is Proteus vulgaris KCTC 2433.
For experiment [10], the system named is Pseudomonas aeruginosa ATCC 15692.
Experiment [11] has as its system Salmonella typhimurium KCTC 1926.
Experiment [12] deals with Staphylococcus aureus ATCC 25923.
For experiment [13], the system named is Staphylococcus epidermidis ATCC 12228.
The test system of experiment [14] is Trichosporon beigelii KCTC 7707.
Another experiment relates to Candida glabrata 090902.
For experiment [15], the system named is Enterobacter cloacae CGMCC 1.57.
In experiment [16] the test system is Enterococcus faecalis 981.
The test system of experiment [17] is Enterococcus faecium 091299.
Experiment [18] deals with Klebsiella pneumoniae 08040724.
Experiment [19] relates to Nocardia asteroides 201118.
The subject of experiment [20] is Psychrobacter faecalis X29.
Experiment [21] deals with Bacillus subtilis CMCC 63501.
Experiment [22] relates to Enterococcus faecalis ATCC 29212.
In experiment [23] the test system is Pseudomonas aeruginosa ATCC 27853.
Experiment [24] concerns Salmonella enterica subsp. enterica serovar Pullorum C79-13.
The subject of experiment [25] is Salmonella enterica subsp. enterica serovar Typhimurium C77-31.
Experiment [26] concerns Staphylococcus aureus ATCC 29213.
Experiment [27] concerns Aspergillus flavus ATCC 24109.
Experiment [28] concerns Aspergillus fumigatus ATCC 1022.
The subject of experiment [29] is Aspergillus niger ATCC 9142.
Experiment [30] relates to Bacillus subtilis ATCC 6051.
In experiment [31] the test system is Candida albicans ATCC 10231.
The subject of experiment [32] is Candida glabrata ATCC 90030.
Experiment [33] concerns Candida krusei ATCC 28870.
Experiment [34] has as its system Cryptococcus neoformans ATCC 2517.
For experiment [35], the system named is Microsporum canis PTCC 5069.
In experiment [36] the test system is Saccharomyces cerevisiae PTCC 5052.
Experiment [37] concerns Trichophyton mentagrophytes ATCC 32510.
The test system of experiment [38] is Klebsiella pneumoniae ATCC 700603.
Experiment [39] has as its system Pseudomonas aeruginosa PA006.
In experiment [40] the test system is Pseudomonas aeruginosa PAO1.
Experiment [41] has as its system Pseudomonas aeruginosa Pa1-SA2.
For experiment [42], the system named is Pseudomonas aeruginosa Pa4-SA2.
The subject of experiment [43] is Salmonella enterica subsp. enterica serovar Typhimurium ATCC 14028.
The subject of experiment [44] is Staphylococcus aureus ATCC 29313.

SMILES strings stand for the structures. ≈ marks a conversion by molar mass, not a printed value. A value given as a limit tells only on which side of the number the result lay.

Consider `CC[C@H](C)[C@H](NC(=O)[C@H](CCCCN)NC(=O)[C@H](CCCCN)NC(=O)[C@H](C)NC(=O)[C@H](CC(C)C)NC(=O)[C@H](CCCCN)NC(=O)[C@H](CCCCN)NC(=O)[C@H](CC(C)C)NC(=O)[C@H](CCCN=C(N)N)NC(=O)[C@H](CCCCN)NC(=O)[C@H](C)N)C(=O)N[C@@H](Cc1c[nH]c2ccccc12)C(=O)N[C@@H](CCCCN)C(=O)N[C@@H](Cc1c[nH]c2ccccc12)C(=O)N[C@@H](CC(C)C)C(N)=O` [AKRLKKLAKKIWKWL], for which the MIC – broadly, the lowest concentration found to suppress growth – in [1] is ≥ 64 µM; in [2], ≥ 64 µM; in [3], 16 µM (≈ 30.6 µg/mL); in experiment [4], 16 µM (≈ 30.6 µg/mL); in [5] it was 8 µM (≈ 15.3 µg/mL); in experiment [6], 16 µM (≈ 30.6 µg/mL). Also, the MIC in experiment [7] was 32 µM (≈ 61.1 µg/mL); in experiment [8] it was 16 µM (≈ 30.6 µg/mL); in experiment [9], 11.3 µM (≈ 21.6 µg/mL); in experiment [10], ≥ 32 µM; in [11], 8 µM (≈ 15.3 µg/mL); in experiment [12], 16 µM (≈ 30.6 µg/mL). Besides, the MIC in [13] is 8 µM (≈ 15.3 µg/mL); in [14] it was ≥ 128 µM.

For `CC[C@H](C)[C@@H]1NC(=O)[C@H](CCCCN)NC(=O)[C@@H](NC(=O)[C@@H](NC(=O)[C@@H](NC(=O)[C@H](CCCCN)NC(=O)[C@@H]2CCCN2C(=O)[C@H](CC(C)C)NC(=O)[C@H](Cc2ccccc2)NC(=O)[C@H](CC(N)=O)NC(=O)[C@H](C)NC(=O)[C@H](C)NC(=O)[C@H](CC(C)C)NC(=O)CNC(=O)[C@H](C)NC(=O)[C@H](CC(C)C)NC(=O)[C@H](CCSC)NC(=O)[C@@H]2CCCN2C(=O)[C@H](CC(C)C)NC(=O)[C@@H](N)Cc2ccccc2)[C@@H](C)CC)[C@@H](C)CC)CSSC[C@@H](C(=O)O)NC(=O)[C@H](CCCCN)NC(=O)[C@H](CCCCN)NC(=O)[C@H]([C@@H](C)O)NC1=O` [FLPMLAGLAANFLPKIICKITKKC], the minimum inhibitory concentration (MIC) in the experiment on Candida glabrata 090902 was 6.3 µM (≈ 16.6 µg/mL); in experiment [15], ≥ 100 µM; in experiment [16], 6.3 µM (≈ 16.6 µg/mL); in experiment [17], ≥ 50 µM; in [7], 100 µM (≈ 263 µg/mL); in experiment [18] it was ≥ 100 µM. Besides, the MIC in experiment [19] came to 3.1 µM (≈ 8.16 µg/mL); in experiment [20] it was 12.5 µM (≈ 32.9 µg/mL); in experiment [12], 6.3 µM (≈ 16.6 µg/mL).

Consider `NC(=O)[C@H](Cc1ccccc1)NC(=O)[C@H](CCCN=C(N)N)NC(=O)[C@H](CS)NC(=O)[C@H](Cc1ccccc1)NC(=O)[C@H](CCCN=C(N)N)NC(=O)[C@H](CCCN=C(N)N)NC(=O)[C@H](CCCN=C(N)N)NC(=O)[C@H](CS)NC(=O)[C@H](CCCN=C(N)N)NC(=O)[C@@H](N)Cc1ccccc1` [FRCRRRFCRF], for which the MIC in [21] is 4 µM (≈ 5.78 µg/mL); in experiment [22], 32 µM (≈ 46.3 µg/mL); in [7], 4 µM (≈ 5.78 µg/mL); in experiment [23], > 128 µM; in [24] it was 16 µM (≈ 23.1 µg/mL); in experiment [25] it was ≥ 32 µM. Further, the MIC in [26] turned out to be 32 µM (≈ 46.3 µg/mL); in experiment [13], 16 µM (≈ 23.1 µg/mL).

Regarding `CC[C@H](C)[C@H](NC(=O)[C@H](CCCCN)NC(=O)[C@H](CCCCN)NC(=O)[C@@H](NC(=O)[C@@H](NC(=O)[C@H](CC(=O)O)NC(=O)[C@H](Cc1ccccc1)NC(=O)[C@H](CC(C)C)NC(=O)CN)[C@@H](C)CC)[C@@H](C)CC)C(=O)N[C@@H](C)C(=O)N[C@@H](CCC(=O)O)C(=O)N[C@@H](CO)C(=O)N[C@@H](Cc1ccccc1)C(=O)O` [GLFDIIKKIAESF], the minimum inhibitory concentration (MIC) in experiment [27] was ≥ 675 µM; in [28], ≥ 84.4 µM; in experiment [29], ≥ 675 µM; in experiment [30], ≥ 172 µM; in experiment [31] it was 84.4 µM (≈ 125 µg/mL); in [32], ≥ 675 µM. The MIC is ≥ 338 µM in experiment [33]; ≥ 675 µM in [34]; 84.4 µM (≈ 125 µg/mL) in experiment [22]; 84.4 µM (≈ 125 µg/mL) in experiment [7]; ≥ 675 µM in experiment [35]; > 675 µM in experiment [23]. Further, the MIC in experiment [36] was ≥ 84.4 µM; in experiment [12], > 675 µM; in experiment [37] it was ≥ 675 µM.

Regarding `CC[C@H](C)[C@H](NC(=O)[C@H](CCCCN)NC(=O)CNC(=O)[C@H](CCSC)NC(=O)[C@H](C)NC(=O)[C@H](Cc1cnc[nH]1)NC(=O)[C@H](C)NC(=O)[C@@H](NC(=O)[C@H](CC(C)C)NC(=O)[C@H](CCC(N)=O)NC(=O)[C@H](CCCCN)NC(=O)CNC(=O)[C@H](C)NC(=O)CNC(=O)[C@H](CCCCN)NC(=O)[C@@H](NC(=O)[C@@H](NC(=O)[C@H](CC(=O)O)NC(=O)[C@H](Cc1ccccc1)NC(=O)[C@@H](NC(=O)CN)C(C)C)[C@@H](C)CC)[C@@H](C)CC)[C@@H](C)CC)C(=O)N[C@@H](C)C(=O)N[C@@H](CCC(=O)O)C(=O)N[C@@H](CCCCN)C(=O)N[C@H](C(N)=O)C(C)C` [GVFDIIKGAGKQLIAHAMGKIAEKV], the MIC in experiment [7] is 77.1 µM (≈ 200 µg/mL); in [38] it was 308 µM (≈ 800 µg/mL); in experiment [23] it was > 197 µM; in [39] it was 6.17 µM (≈ 16 µg/mL); in experiment [40] it was 197 µM (≈ 512 µg/mL); in [41], ≥ 197 µM. Also, the MIC is ≥ 98.6 µM in [42], 308 µM (≈ 800 µg/mL) in [43] and ≥ 308 µM in [44].
